Laboratory results: patent publication US8921314B2, “Conjugates of GLP-1 agonists and uses thereof” (Angiochem, Inc., priority 2008, dated 2014)
“Also recorded” adds a separate entry of the source.

Columns and labels:
[1] = tested on: mouse brain; settings: in vivo
Protocol: To measure brain uptake of the exendin-4/Angiopep-2 conjugates, we used an in situ perfusion assay. […] The uptake of labeled exendin-4 and the exendin-4/Angiopep-2 conjugates was measured using the in situ brain perfusion method adapted in our laboratory for the study of drug uptake in the mouse brain (Dagenais et al., J Cereb Blood Flow Metab. 20:381-6, 2000; Cisternino et al., Pharm Res 18, 183-190, 2001). Briefly, the right common carotid artery of mice anesthetized with ketamine/xylazine (140/8 mg/kg i.p.) was exposed and ligated at the level of the bifurcation of the common carotid, rostral to the occipital artery. The common carotid was then catheterized rostrally with polyethylene tubing filled with heparin (25 U/ml) and mounted on a 26-gauge needle. The syringe containing the perfusion fluid ([^125I]-proteins or [^125I]-peptides in Krebs/bicarbonate buffer at pH 7.4, gassed with 95% O2 and 5% CO2) was placed in an infusion pump (Harvard pump PHD 2000; Harvard Apparatus) and connected to the catheter. Prior to the perfusion, the contralateral blood flow contribution was eliminated by severing the heart ventricles. The brain was perfused for 5 min at a flow rate of 1.15 ml/min. After perfusion of radiolabeled molecules, the brain was further perfused for 60 s with Krebs buffer, to wash away excess [^125I]-proteins. […]

[2] = tested on: ob/ob mice; experiment: treatment of obese (ob/ob) mice with exendin-4/Angiopep-2 conjugate; type: in vivo, mouse; settings: Q1D, higher doses (exendin-4 30 μg/kg, Exen-An2 48 μg/kg), vs control
Protocol: Obese mice (ob/ob mice) were administered the [Lys^39-MHA]exendin-4/Angiopep-2-Cys-NH2 conjugate (Exen-An2).
A 1.6 μg/kg dose of Exen-An2 is equivalent to a 1 μg/kg dose of exendin-4. The body weight of each mouse was measured daily. Food intake was estimated based on the mean values for each group, and glycemia was measured one hour following treatment.

[3] = tested on: DIO mice; experiment: reduction of glycemia in DIO mice after bolus injection; type: in vivo, mouse; settings: vs control
Protocol: We also tested the ability of the exendin-4-Angiopep-2 dimer conjugate to reduce glycemia in DIO mice. Mice were injected with a bolus containing a control, exendin-4, or the exendin-4-Angiopep-2 dimer conjugate.

| Substance | brain distribution [1] | body weight gain ([2]; after 10 days, FIG. 5) | food intake ([2]; FIG. 6) | glycemia [3] |
| --- | --- | --- | --- | --- |
| [Lys^39-MHA]exendin-4/Angiopep-2-Cys-NH2 [Exen-An2] | 10 ml/100 g/2 min |  |  |  |
| exendin-4 [reference compound] | 0.2 ml/100 g/2 min | lower than the control; also recorded: reduce weight gain | reduced; also recorded: reduce food intake | reduced glycemia |
